Key:
[1] = physiological pH of 7.4; cited from earlier work
[2] = Perfusion and viability cardiac imaging with parenteral ascorbate at 7T; type: in vivo; conditions: initial i.v. bolus, rat heart
Description: FIGS. 11A-11B. Perfusion and viability cardiac imaging with parenteral ascorbate. FIG. 11A depicts the two primary imaging planes, coronal and axial, for rat heart imaging at 7T.
Perfusion and viability cardiac imaging with parenteral ascorbate was assessed. FIG. 11A, depicts the two primary imaging planes, coronal and axial, for rat heart imaging at 7T. Retrospective gating with respiratory coupling was employed to collect images at 7T. The acquisition sequence is moderately T2-weighted and can be further optimized to enhance the contrast effect.

[3] = T2 contrast changes in guinea pig brain at 7T after i.v. ascorbate formulations; type: in vivo, guinea pigs; conditions: 2 g/kg over 60 min slow infusion
[4] = In vitro (phantom) quantitative T2 mapping at 7T, spin-spin relaxation contrast
Description: Data are provided from quantitative T2 mapping at 7T using a RARE FSE protocol with at least 6 different echo times, at solute concentrations of 10 and 20 mM.

[5] = Ascorbate T2 enhancement in rodent model of neocortical spreading depression; type: in vivo; conditions: slices 3 and 4 mm anterior to bregma, KCl-induced SD in right hemisphere
Source text: FIG. 10. […] The craniectomy site is 1 mm posterior to bregma, a skull landmark representing the posterior third of the underlying brain. The above two rows show T2 images and quantitative color lute T2 maps of signal change in rodent brain that are 3 and 4 mm anterior to bregma, that is, distant from the SD induction site. […] These marked cortical signal changes are consistent with the known hypermetabolic activity that occurs with SD, as also observed with ^18F-FDG PET, and with direct microdialysis and metabolomic determinations.
Spreading depression (SD) is an experimentally reproducible pathophysiological phenomenon of CNS tissues originally described 60 years ago by Loao. After a focal region of cortex reaches a critical threshold of ionic perturbation, a massive spreading wave of cellular depolarization may begin and spread through gray matter tissue, but remain confined to the gray matter zone in which it was induced, not crossing white matter pathways. […]
The craniectomy site is 1 mm posterior to bregma, a skull landmark representing the posterior third of the underlying brain. The above two rows show T2 images and quantitiative color lute T2 maps of signal change in rodent brain that are 3 and 4 mm anterior to bregma, that is, distant from the SD induction site. […]

[6] = oral, even at doses more than 100 times the recommended daily allowance; cited from earlier work

Compound	fraction present as mono anion [1] [%]	T2 signal intensity in left ventricle [2]	FSE T2 images before and after infusion [3]	change in T2 relaxation ([4]; 10 mM ascorbate with physiological glucose (5 mM) or HCO3- (25 mM), pH 7.0) [%]	pH at which the T2 effect is maximized ([4]; phantoms, FIG. 3C)	lowest concentration with statistically significant negative T2 contrast (signal loss) ([4]; vs control (phosphate-buffered saline), conventional FSE acquisition) [mM]	effect of H2O2 on ascorbate T2 enhancement ([4]; μM H2O2, phantoms, FIG. 3B)	T2 signal change in cerebral cortex [5]	plasma concentration [6] [µM]	T2 contrast effect (T2 relaxation in ms) relative to meglumine or ascorbate alone ([4]; 10 mM, water, neutral pH, FIG. 3D)
O=C1O[C@H]([C@@H](O)CO)C(O)=C1O [ascorbate, L-ascorbic acid]	99	transient decrease in T2 signal intensity throughout the left ventricle	dramatic signal intensity differences throughout the brain parenchyma	50	7.0-7.4	1 to 5	marked synergism	clear T2 asymmetry in the right cerebral cortex as compared to the left	≤ 200	–
meglumine ascorbate	–	–	–	–	–	–	–	–	–	approximately 4 times

Source: patent publication US12303572B2 (Duke University, priority 2015, dated 2025)
